Assay results: PubChem BioAssay AID1963843 (Molecular Pharmacology Branch, DTP, NCI, 2024)
Several values for one entry are separate records, joined by “and”; a condition that tells them apart may be missing. Identical values can stand only once.

System: 616215-338-R-J1-PDC complex spheroid viability
Assay: Anticancer human tumor 616215-338-R-J1-PDC patient-derived colon adenocarcinoma cell line growth inhibition [POLQ]
Details: for viability, T/C: stronger effect = lower value
Method: Multicellular complex tumor spheroid response to Polymerase (POL) inhibitors (novobiocin, ART-558, RP6685) in combination with a variety of drugs and investigational agents in selected tumor cell lines
The POL inhibitors (novobiocin, ART-558, and RP6685) were evaluated both individually and in combination with standard of care and investigational anticancer small molecules within a complex spheroid model of solid tumors. . Complex spheroids include a stromal component modeled by human endothelial cells (HUVEC) and fibroblasts modeled by human mesenchymal stem cells (MSCs). The concentration ranges selected for each drug and investigational agent were based upon clinically achievable concentrations if the clinical Cmax of the agent was known.
Compounds. The drugs and investigational agents: novobiocin (NSC847541), ART-558 (NSC835418), RP-6685 (NSC848927), peposertib (NSC802822), ceralasertib (NSC780249), elimusertib (NSC800525), camonsertib (NSC841442), AZD-1390 (NSC803789), olaparib (NSC753686), talazoparib (NSC767125), rucaparib (NSC756644), sotorasib (NSC818433), MRTX-1133 (NSC836407), SN-38 (NSC673596), topotecan (NSC609699), epotoside (NSC141540), doxorubicin (NSC123127), gemcitabine (NSC613327), 5-fluorouracil (NSC19893), paclitaxel (NSC125973), vemurafenib (NSC761431), MSA-2 (NSC828583), SN-011 (NSC837082), adavosertib (NSC754352), prexasertib (NSC758257), carboplatin (NSC241240) and oxaliplatin (NSC266046), were obtained from the National Cancer Institute (NCI) Developmental Therapeutics Program Chemical Repository (21). The FDA-approved anticancer drug set is available from the Developmental Therapeutics Program at https://dtp.cancer.gov/organization/dscb/obtaining/. […] The stock solutions were prepared in dimethyl sulfoxide (DMSO, Sigma-Aldrich, St. Louis, MO, cat. D2650), except for the platinum compounds which were prepared in saline (Quality Biological, Gaithersburg, MD, cat. 114-055-101), at 800-fold the tested concentration and stored at -70 degrees C prior to their use. All drugs and investigational agents were tested over a range starting from a high concentration at or near the clinical Cmax and decreasing in half-log increments. If the clinical Cmax for an agent had not been determined, the highest concentration tested was 10 microM, except for SN-38, which was tested at a high concentration of 1 microM.
Cell Culture. All cells were maintained in an incubator at 37 degrees C and 5% CO2 with 95% humidity. The PDC lines were cultured according to standard operating procedures established by the NCI PDMR (https://pdmr.cancer.gov). Table 3 of the manuscript, lists the cell lines along with the number of the three cell types plated to form the mct-spheroids and media for tumor cell growth. After thawing, all PDC lines, except 997537-175-T-J1-PDC and 415267-285-R-J2-PDC, were cultured in Matrigel-coated flasks prepared with a working solution of 1X Ham's F-12 nutrient mix, without supplementation (Thermo Fisher Scientific, cat. 11765054), 100 U/mL penicillin-streptomycin (Thermo Fisher Scientific, cat. 15140122), and 2.5% Matrigel (Corning Inc., Corning, NY, cat. 354248) for the first three passages. The two PDC lines 997537-175-T-J1-PDC and 415267-285-R-J2-PDC were cultured on uncoated flasks. The 857933-349-R-J2-PDC line was cultured in 6C/Colon 1B media containing advanced DMEM/F-12 (Thermo Fisher Scientific, cat. 12634028), 10 mM HEPES (Thermo Fisher Scientific, cat. 15630080), 1X GlutaMAX supplement (Thermo Fisher Scientific, cat. 35050061), 0.1 mg/mL primocin (InvivoGen, San Diego, CA, cat. ant-pm-2), 10% defined fetal bovine serum, heat inactivated (HyClone Laboratories Inc., Logan, UT, cat. SH30070.03HI), 50% L-WRN conditioned media (ATCC, cat. CRL-3276), 1.25 mM N-Acetyl-L-cysteine (Sigma-Aldrich, cat. A9165), 10 mM nicotinamide (Sigma-Aldrich, cat. N0636), 1X B-27 supplement (Thermo Fisher Scientific, cat. 17504044), 1X N-2 supplement (Thermo Fisher Scientific, cat. […]
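Note: spheroids exposed to compounds for one week before readout.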
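Throughout, for viability, T/C: percent viability relative to DMSO vehicle wells taken as 100%.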

CC(C)n1c(=O)n(C)c2cnc3cc(F)c(-c4ccc(OCCCN5CCCCC5)nc4)cc3c21 + Cc1cccc(N(C)C(=O)C2C(O)CCN2c2nc(C)cc(C(F)(F)F)c2C#N)c1
IC50 (curve of first compound, second compound 0.0316 µM): > 10 µM | IC50 (curve of first compound, second compound 0.1 µM): > 10 µM | IC50 (curve of first compound, second compound 0.316 µM): > 10 µM | IC50 (curve of first compound, second compound 1 µM): > 10 µM | IC50 (curve of first compound, second compound 3.16 µM): > 10 µM | IC50 (curve of first compound, second compound 10 µM): > 10 µM | viability, T/C (second compound 0.0316 µM, first compound 0.0316 µM): 95.4% | viability, T/C (second compound 0.0316 µM, first compound 0.1 µM): 98.2% | viability, T/C (second compound 0.0316 µM, first compound 0.316 µM): 99.1% | viability, T/C (second compound 0.0316 µM, first compound 1 µM): 111% | viability, T/C (second compound 0.0316 µM, first compound 3.16 µM): 108% | viability, T/C (second compound 0.0316 µM, first compound 10 µM): 114% | viability, T/C (second compound 0.1 µM, first compound 0.0316 µM): 109% | viability, T/C (second compound 0.1 µM, first compound 0.1 µM): 113% | viability, T/C (second compound 0.1 µM, first compound 0.316 µM): 106% | viability, T/C (second compound 0.1 µM, first compound 1 µM): 102% | viability, T/C (second compound 0.1 µM, first compound 3.16 µM): 105% | viability, T/C (second compound 0.1 µM, first compound 10 µM): 105% | viability, T/C (second compound 0.316 µM, first compound 0.0316 µM): 102% | viability, T/C (second compound 0.316 µM, first compound 0.1 µM): 97.8% | viability, T/C (second compound 0.316 µM, first compound 0.316 µM): 94.5% | viability, T/C (second compound 0.316 µM, first compound 1 µM): 107% | viability, T/C (second compound 0.316 µM, first compound 3.16 µM): 117% | viability, T/C (second compound 0.316 µM, first compound 10 µM): 103% | viability, T/C (second compound 1 µM, first compound 0.0316 µM): 101% | viability, T/C (second compound 1 µM, first compound 0.1 µM): 99.8% | viability, T/C (second compound 1 µM, first compound 0.316 µM): 102% | viability, T/C (second compound 1 µM, first compound 1 µM): 117% | viability, T/C (second compound 1 µM, first compound 3.16 µM): 114% | viability, T/C (second compound 1 µM, first compound 10 µM): 113% | viability, T/C (second compound 3.16 µM, first compound 0.0316 µM): 105% | viability, T/C (second compound 3.16 µM, first compound 0.1 µM): 101% | viability, T/C (second compound 3.16 µM, first compound 0.316 µM): 108% | viability, T/C (second compound 3.16 µM, first compound 1 µM): 114% | viability, T/C (second compound 3.16 µM, first compound 3.16 µM): 108% | viability, T/C (second compound 3.16 µM, first compound 10 µM): 102% | viability, T/C (second compound 10 µM, first compound 0.0316 µM): 108% | viability, T/C (second compound 10 µM, first compound 0.1 µM): 114% | viability, T/C (second compound 10 µM, first compound 0.316 µM): 105% | viability, T/C (second compound 10 µM, first compound 1 µM): 109% | viability, T/C (second compound 10 µM, first compound 3.16 µM): 108% | viability, T/C (second compound 10 µM, first compound 10 µM): 95.4%

CCc1cc2c(N3CCc4c(cc(Cn5ccnc5)cc4-c4cn(C)nc4C(F)(F)F)C3=O)ccnc2c(OC)n1
viability, T/C (compound 0.0316 µM): 93.8% and 107% and 110% | viability, T/C (compound 0.1 µM): 106% and 93.5% and 101% | viability, T/C (compound 0.316 µM): 111% and 89.7% and 94.4% | viability, T/C (compound 1 µM): 107% and 75.4% and 60.1% | viability, T/C (compound 3.16 µM): 79.1% and 52.8% and 53.1% | viability, T/C (compound 10 µM): 49.8% and 47.7% and 43.4% | IC50 (curve of compound): > 10 µM and 6.52 µM and 2.81 µM

CCCS(=O)(=O)Nc1ccc(F)c(C(=O)c2c[nH]c3ncc(-c4ccc(Cl)cc4)cc23)c1F
viability, T/C (compound 0.0316 µM): 106% and 102% and 108% | viability, T/C (compound 0.1 µM): 97.4% and 107% (2×) | viability, T/C (compound 0.316 µM): 105% and 102% and 97.8% | viability, T/C (compound 1 µM): 107% and 102% and 95.8% | viability, T/C (compound 3.16 µM): 101% (2×) and 91.2% | viability, T/C (compound 10 µM): 10.8% and 13.5% and 20.5% | IC50 (curve of compound): 6.07 µM and 6.2 µM and 6.12 µM
